According to patent US20230190867A1, “METHODS OF TREATING NASH AND COMPOSITIONS THEREFORE” (BIOINCEPT, LLC, priority 2018, published 2023):

Assays:
Kv flux = format: cell-based; parameters: Effectiveness: scale not given here; settings: for Effectiveness / Kv flux 100% in nt (stimulus buffer only): conc. 0.625 uM; for K+ inhibition as compared with sPIF: dose comparison analysis
Procedure: Currently, effective immunomodulatory agents, with minimal side effects, that can regulate inflammation in the liver to promote liver health in the setting of chronic liver disease have not been developed and they are desperately needed. […] In addition, the effect of TxpIC on these cells were tested This is a potent chemical mimicking viarl infection in the liver.

[1] = test system: Hepatitis C (HCV)-induced primary human hepatocytes (PHH); assay: Inflammatory gene expression in HCV-induced primary human hepatocytes; format: cell-based
Source text: (§1) Methods Primary human hepatocytes (PHHs) and HepaRG™ cells were studied. The later are terminally differentiated hepatic cells derived from a human hepatic progenitor cell line that retains many characteristics of primary human hepatocytes were purchased from Thermo Fisher Scientific Inc. (MA, USA). PHHs were also obtained from Dr. David Geller, at the University of Pittsburgh, through the NIH funded Liver Tissue and Cell Distribution System (LTCDS) and maintained in Williams E Medium containing cell maintenance supplement reagents from Invitrogen (Carlsbad, Calif.). The HCV JFH strain was used in cell culture experiments at an M.O.I. of 0.5-1. […] In other experiments TxpIC at 500 ng/ml were added to the cells. This chemical replicates a viral induced inflammation and therefore it can be used in different cell types also when hepatitis C infection is difficult to induce. […] Li, K. (2012). Hepatology, 55: 666-675. For analysis of endogenous mRNA levels, total RNA was isolated from cells using the RNeasy RNA extraction kit (Qiagen, Valencia, Calif.) and cDNA synthesis was performed using 0.5 μg of total RNA (Transcriptor First Strand cDNA Synthesis Kit, Roche, Basel, Switzerland). Fluorescence real-time PCR analysis was preformed using an ABI 7500 instrument (Applied Biosystems, Foster City, Calif.) and TaqMan gene expression assay (Applied Biosystems). Relative amounts of mRNA, determined using a FAM-Labeled TaqMan Probe, were normalized to the 18S ribosomal RNA levels in each PCR reaction using the eukaryotic 18S rRNA endogenous control from ABI (VIC/MGB Probe, Primer Limited, Cat #4319413E). The delta 2(-Delta Delta C(T)) method was used for quantitation of relative mRNA levels and fold induction.

[2] = test system: HepaRG cells induced by TxpIC; assay: Inflammatory gene expression in TxpIC-induced HepaRG cells (real-time PCR); format: cell-based, human; settings: TxpIC 500 ng/ml
Source text: Methods Primary human hepatocytes (PHHs) and HepaRG™ cells were studied. The later are terminally differentiated hepatic cells derived from a human hepatic progenitor cell line that retains many characteristics of primary human hepatocytes were purchased from Thermo Fisher Scientific Inc. (MA, USA). PHHs were also obtained from Dr. David Geller, at the University of Pittsburgh, through the NIH funded Liver Tissue and Cell Distribution System (LTCDS) and maintained in Williams E Medium containing cell maintenance supplement reagents from Invitrogen (Carlsbad, Calif.). The HCV JFH strain was used in cell culture experiments at an M.O.I. of 0.5-1. […] In other experiments TxpIC at 500 ng/ml were added to the cells. […] Fluorescence real-time PCR analysis was preformed using an ABI 7500 instrument (Applied Biosystems, Foster City, Calif.) and TaqMan gene expression assay (Applied Biosystems). Relative amounts of mRNA, determined using a FAM-Labeled TaqMan Probe, were normalized to the 18S ribosomal RNA levels in each PCR reaction using the eukaryotic 18S rRNA endogenous control from ABI (VIC/MGB Probe, Primer Limited, Cat #4319413E). The delta 2(-Delta Delta C(T)) method was used for quantitation of relative mRNA levels and fold induction.

[3] = test system: TxpIC-induced primary human hepatocytes (PHH); assay: Inflammatory gene expression in TxpIC-induced primary human hepatocytes; format: cell-based; settings: for Tx pIC induced CxCl10 expression: as compared with sPIF; for Tx pIC induced RSAD2: sPIF 200 nM
Source text: as §1

Row | Sequence | Effectiveness (Kv flux) | Kv flux 100% in nt (stimulus buffer only) (Kv flux) [%] | other results
1 | MVRIKPGSANWPSDD [PIF-pos8] | 45.79 | 54.21 | 
2 | MVRIKPGSANKPSFD [PIF-pos10] | 53.72 | 46.28 | HCV induced CXCL10 expression [1]: inhibit; HCV induced IL28 expression [1]: Inhibitory effect; INFa induced suppression of HCV [1]: potentiate; K+ inhibition as compared with sPIF (Kv flux): increased K+ inhibition as compared with sPIF; effect on RSAD2 compared with sPIF [2]: similar; suppression of CxCL10, IL28, CCL5 compared with sPIF ([2]; time dependent): more pronounced suppression than sPIF; 500 ng/ml TpxIC induced CCL5 [3]: Inhibitory effect; Tx pIC induced CxCl10 expression [3]: inhibit; Tx pIC induced RSAD2 [3]: inhibit
3 | MVRIKPGSWNKPSDD [PIF-pos7] | −22.27 | 122.3 | 
4 | MVRIKPWSANKPSDD [PIF-pos6] | −20.45 | 120.5 | 
5 | MVRIWPGSANKPSDD [PIF-pos1] | 47.8 | 52.2 | 
6 | MVRIKPYSANKPSDD [PIF-pos5] | 22.81 | 77.19 | 
7 | MVRIIPGSANKPSDD [PIF-pos4] | −1.117 | 101.1 | 
8 | MVRIFPGSANKPSDD [PIF-pos2] | −17.02 | 117 | 
9 | MVRIYPGSANKPSDD [PIF-pos3] | 52.05 | 47.95 | HCV induced CXCL10 expression [1]: inhibit; INFa induced suppression of HCV [1]: potentiate; K+ inhibition as compared with sPIF (Kv flux): increased K+ inhibition as compared with sPIF; 500 ng/ml TpxIC induced CCL5 [3]: Inhibitory effect; Tx pIC induced CxCl10 expression [3]: inhibit; Tx pIC induced RSAD2 [3]: inhibit
10 | MVRIKPGSANKWSDD [PIF-pos9] | 34.09 | 65.91 | 
